Laboratory results published in paper PMC6333900, “Discovery of peptide ligands targeting a specific ubiquitin-like domain–binding site in the deubiquitinase USP11” (The Journal of Biological Chemistry, 2018).
No end group written: not given here.

test system: USP11_DU (USP11 N-terminal DUSP–UBL domains); experiment: Next-generation phage display enrichment (two-proportion Z test, round 3 of panning); format: binding, human; conditions: enrichment on USP11_DU vs unrelated His-tagged control protein (flagellin fragment), after three rounds of panning, gpVIII phage-displayed nonapeptide
Source text: An NGPD approach was applied to the identification of USP11 ligands as schematically depicted in Fig. 1B. A randomized linear peptide library fused to the gpVIII protein was used to isolate peptides that interact with the USP11 N-terminal DU domains (DUSP and UBL domains in tandem; USP11_DU; Fig. 1A). After three biopanning rounds, phage ssDNA was extracted and purified, and peptide sequences were amplified and deep-sequenced. […] A graphical representation of the residue frequency within the motifs as computed by the Multiple EM for Motif Elicitation (MEME) algorithm ([33]) is shown in Fig. 1C. The thermodynamic binding parameters of synthetic peptides representative of both motifs, including the N-terminal phage protein sequence (AEGEF), AEGEFYKLKIRTPQ (referred to as FYLIR peptide) and AEGEFLELLKASRW (referred to as LXLL peptide), were determined by isothermal titration calorimetry (ITC). Peptides harboring either motif bound USP11_DU with dissociation constants of about 10 μM (8.86 ± 1.13 μM for AEGEFYKLKIRTPQ and 6.92 ± 2.25 μM for AEGEFLELLKASRW; Fig. 1D).
The peptide phage display library used for biopanning experiments (kindly provided by Professor Franco Felici, University of Molise, Italy; designated PC89VIII) is based on the PC89 phagemid vector ([50]) with a nonapeptide inserted at the N terminus of the phage major coat protein pVIII and a reported diversity of ∼10^7. The library was transformed into Escherichia coli TG1 supE thi-1 Δ(lac-proAB) Δ(mcrB-hsdSM)5(rK-mK) [F′traD36 proAB lacIqZΔM15], which was the strain used for all manipulations and phage rescue. Libraries were grown to mid-log phase (OD600 ∼0.6), superinfected with M13KO7 helper phage (Pharmacia LKB), and incubated overnight at 30 °C (250 rpm) to produce phage particles. Phage was harvested, and PEG was precipitated only for the first panning round. For all subsequent selection rounds (three in total), supernatant phage was used directly. Biopanning was carried out once, as described previously ([51]), and proteins were immobilized on cobalt beads (Dynabeads) (solution phase panning). A total of 100 μg of USP11_DU was immobilized for each round. In parallel, the phage isolated at each round against USP11_DU was also bound against an unrelated His-tagged control protein under the same conditions. This control protein was a fragment of flagellin, a virulence factor from E. coli O157:H7, amino acid residues 164–495, and the protein was used as it is unrelated to the target proteins and carried a C-terminal His tag. Bound phage were washed 10–20 times with PBS (10 mM phosphate buffer, pH 7.2–7.4, with 150 mM NaCl) plus 0.1% (v/v) Tween (PBST) and then PBS. Bound phage were eluted from the beads with 100 mM triethylamine and neutralized in 1 M Tris, pH 7.4. Half of the eluted phage was used for infection of TG1 cells, which were plated and used to make glycerol stocks.
The ssDNA of eluted phage for round 3 of selection against the USP11_DU target and the control protein was extracted and purified using the QIAprep Spin M13 kit. Subsequently, phage ssDNA was precipitated with ethanol and stored as a dry pellet to be used as a PCR template. For the amplification of the unknown peptide sequences, a two-step PCR strategy was followed, as described previously ([32]). The strategy produced an amplicon of ∼330 bp, and each sample contained a unique barcoded sequence. Each sample's DNA concentration was determined by the Agilent 2100 Bioanalyzer using the DNA 1000 kit. Based on the concentration readings for the peak of interest, samples were pooled in equal amounts, purified by the Agencourt AMPure XP kit, and run on a 2% (w/v) agarose gel. The band of ∼330 bp was excised from the gel and purified using the NucleoSpin Gel and PCR Clean-up kit. Finally, the concentration and size of the pooled DNA were measured on a Bioanalyzer. NGPD was carried out once for each round of panning. […]

Point of comparison: LELARRSPV, Z score 4.1. Against it:
- PQLLALSRT — lower, 3.9
- LAMLTRGRP — lower, 3.0
- YKLKIRAPQ — higher, 7.9
- LEPVRRSPV — the same, 4.1
- LELLKVSRW — lower, 3.0
- LELVRHSPV — lower, 3.0
- YKLKTRTPQ — higher, 4.5
- LQLLALSRA — lower, 3.6
- LESLKASRW — higher, 4.9
- LQLLAPSRT — lower, 3.0
- PELLKASRW — lower, 3.6
- YKLKIRTPR — higher, 7.1
- LELVCRSPV — lower, 2.8
- LELLEASRW — higher, 5.0
- LRLLALSRT — higher, 4.4
- YKLKIRTLQ — lower, 3.7
- LELVRRSPA — lower, 3.7
- YKLKIRTSQ — lower, 3.6
- YKLRIRTPQ — higher, 5.8
- LELLRASRW — higher, 4.6
- YKLEIRTPQ — higher, 5.6
- CKLKIRTPQ — higher, 5.6
- LALLMRQRP — higher, 19.0
- YELKIRTPQ — higher, 4.6
- YKLKIRTPQ — higher, 168.4
- LELVRCSPV — lower, 3.2
- LELLKAPRW — lower, 3.6
- LALIKRQPL — higher, 18.1
- LELVHRSPV — the same, 4.1
- LELVRRSPV — higher, 89.0
- LQLLALSRT — higher, 70.9
- YRLKIRTPQ — higher, 5.5
- LQLPALSRT — the same, 4.1
- LELLKASRW — higher, 108.7
- LELLKASRR — higher, 4.8
- YKLKIQTPQ — lower, 4.0
- LELVRRSSV — lower, 3.0
- YKPKIRTPQ — higher, 6.6
- HKLKIRTPQ — higher, 5.5
- NKLKIRTPQ — lower, 2.8
- YKLKIRIPQ — higher, 4.4
- YKLKIRTPL — lower, 3.2
- LELLKALRW — lower, 3.0
- LELPKASRW — higher, 4.5
- YKLKVRTPQ — higher, 5.7
- LGLLKASRW — higher, 4.4

target: T1, full-length USP11 (FL-USP11) (Homo sapiens, UniProt P51784); experiment: Isothermal titration calorimetry, full-length USP11; conditions: ITC, 30 μM protein in PBS, 25 °C, one site binding model; n=1; read-out: dissociation constant
T1 construct: FYLIR peptide (AEGEFYKLKIRTPR) titrated into full-length USP11 (FL-USP11); His tag (inferred from nickel-chelate purification and the pColdI vector); made in house; host or cells: E. coli BL21-CodonPlus (pColdI), grown 72 h at 10 °C
T1 sequence (P51784 44-963 limits assumed): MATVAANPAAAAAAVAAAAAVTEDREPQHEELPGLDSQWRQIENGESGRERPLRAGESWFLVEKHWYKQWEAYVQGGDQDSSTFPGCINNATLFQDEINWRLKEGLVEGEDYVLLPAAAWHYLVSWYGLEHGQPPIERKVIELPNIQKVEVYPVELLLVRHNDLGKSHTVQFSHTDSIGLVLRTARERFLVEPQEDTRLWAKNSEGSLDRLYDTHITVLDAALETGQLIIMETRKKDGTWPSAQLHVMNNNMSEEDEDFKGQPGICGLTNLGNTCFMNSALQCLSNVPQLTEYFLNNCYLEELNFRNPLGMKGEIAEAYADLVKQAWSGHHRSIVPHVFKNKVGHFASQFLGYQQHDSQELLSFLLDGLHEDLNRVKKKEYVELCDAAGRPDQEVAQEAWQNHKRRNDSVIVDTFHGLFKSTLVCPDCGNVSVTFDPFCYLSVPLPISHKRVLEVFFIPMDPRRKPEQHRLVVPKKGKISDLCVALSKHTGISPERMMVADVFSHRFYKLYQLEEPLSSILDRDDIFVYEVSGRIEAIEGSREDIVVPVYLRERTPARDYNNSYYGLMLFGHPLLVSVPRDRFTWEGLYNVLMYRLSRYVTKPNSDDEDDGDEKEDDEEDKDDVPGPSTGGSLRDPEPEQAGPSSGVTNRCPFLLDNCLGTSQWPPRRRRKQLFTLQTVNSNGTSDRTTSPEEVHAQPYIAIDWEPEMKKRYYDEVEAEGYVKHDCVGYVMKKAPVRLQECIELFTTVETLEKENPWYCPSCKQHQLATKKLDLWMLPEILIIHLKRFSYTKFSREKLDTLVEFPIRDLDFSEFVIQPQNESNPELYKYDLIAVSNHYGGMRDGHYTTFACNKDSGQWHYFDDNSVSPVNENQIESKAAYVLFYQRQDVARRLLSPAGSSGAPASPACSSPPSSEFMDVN
Method: (§1) ITC data were measured on a MicroCal VP-ITC or a PEAQ ITC instrument to obtain the binding parameters for peptide ligand–USP11_DU interactions. The sample cell contained 30 μM protein in PBS buffer. Each peptide (at a concentration of 300 or 600 μM) was titrated into the sample cell in 8-μl (VP-ITC) or 2-μl (PEAK ITC) injections at a temperature of 25 °C. Spacing was typically 180 s, and a stirring speed of 300 rpm was used. The data were analyzed using NITPIC ([52]), SEDPHAT ([53]), and GUSSI software. ITC experiments were repeated at least twice independently apart from the USP15_DU, USP4_DU, and the FL-USP11 titrations with FYLIR peptide, which were conducted once.

AEGEFYKLKIRTPR-NH2 [AEGEFYKLKIRTPR] was tested, and the Kd was ~12.5 µM.

test system: USP11_DU^L208F/S242R; experiment: Isothermal titration calorimetry, USP11_DU double mutant; format: binding, human; conditions: 30 μM protein in PBS, peptide 300 or 600 μM, 25 °C, pocket-deficient double mutant, repeated at least twice
Method: as §1

For “AEGEFLRLLNFTKP [peptide harboring motif 2 (LXLL)]”, the “binding by ITC” value was “abolished”.

test system: Panc1 cells; experiment: Cell viability (Presto Blue assay), Panc1; format: cell-based, human; conditions: Panc1, up to 10 μM, 24 h, Presto Blue, n=4 biological repeats (Fig. S6)
Method: Cells were plated in 96-well plates (2.5 × 10^4 cells/well) and treated with GET-FYLIR (0–50 μM) for 24 h. Cells were also treated with GET-Scrambled as a control. After treatment, cells were washed with PBS and then incubated for 15 min at 37 °C with a 100-μl Presto Blue solution (10% Presto Blue, Invitrogen in Hanks' balanced salt solution, Sigma). Change in the fluorescence was measured using a plate reader with the excitation/emission wavelengths set at 560/590 nm (Infinite® 200 PRO, TECAN), with untreated cells used as a control. All data sets were combined for the statistical analysis. A Sidak's multiple comparisons test was applied. N refers to the number of biological replicates.

APKFEIRRGTYKLE [GET-Scrambled] was tested, and the cell viability was “no significant effect”.

test system: Panc1 cells; experiment: Cell uptake (flow cytometry), Panc1; format: cell-based, human; conditions: 1 μM and 5 μM, 1 or 24 h, flow cytometry
Method: Cells treated with GET-FYLIR or GET-Scrambled were analyzed on an Astrios cell sorter using a 488-nm […] laser (40,000 cells; gated on live cells by forward/side scatter). Gmean was used as the average cell intensity. All data sets were combined for the statistical analysis. A Sidak's multiple comparisons test was applied. N refers to the number of biological replicates.

In the case of APKFEIRRGTYKLE [GET-Scrambled], the “uptake profile, NIH3T3 versus Panc1” value is reported as “no difference in the uptake profile between NIH3T3 and Panc1 cells”.

same assay, conditions: NIH3T3 and Panc1, 1 and 5 μM, flow cytometry

With APKFEIRRGTYKLE [GET-Scrambled] the cellular delivery was “efficiently delivered”.
